Experimental data as given in ChEMBL document CHEMBL3217553, “Binding properties and biological characterization of new sugar-derived Ras ligands” (Medchemcomm, 2011).
The source made the active and inactive calls. The calls are words filed in the database; no cut-off is given here.

Tests used:
[1] = Inhibition of cell proliferation in mouse NIH/3T3 cells at 100 uM after 24 to 72 hrs by coulter counting analysis; type: cell-based; conditions: nih3t3, 100 µM
GTPase HRas [2] = target: T1, GTPase HRas (Homo sapiens, UniProt P01112); assay: Inhibition of recombinant N-terminal His-tagged H-Ras (unknown origin) expressed in Escherichia coli M15 assessed as inhibition of GEF-mediated nucleotide exchange after 300 secs by luminescence spectrophotometry
Target sequence in this assay (P01112 whole entry): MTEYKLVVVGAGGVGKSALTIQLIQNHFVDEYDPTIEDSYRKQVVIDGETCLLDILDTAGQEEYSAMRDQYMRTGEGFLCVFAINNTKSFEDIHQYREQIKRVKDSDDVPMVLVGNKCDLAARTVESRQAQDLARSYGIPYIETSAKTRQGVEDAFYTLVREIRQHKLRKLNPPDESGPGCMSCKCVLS

NIH3T3 [3] = assay: Inhibition of cell proliferation in mouse NIH/3T3 cells expressing K-RAS after 24 to 72 hrs by coulter counting analysis; type: functional, cell-based
GTPase HRas [4] = target: T1, GTPase HRas; assay: Inhibition of recombinant N-terminal His-tagged H-Ras (unknown origin) expressed in Escherichia coli M15 assessed as inhibition of human Sos1-mediated nucleotide exchange after 300 secs by luminescence spectrophotometry
Mus musculus = organism: Mus musculus; assay: Inhibition of Ras in mouse NIHRAS cells assessed as reduction of phosphorylated MAPK level at 250 uM after 24 hrs by sandwich ELISA; type: cell-based
[5] = Inhibition of cell proliferation in mouse NIH/3T3 cells after 24 to 72 hrs by coulter counting analysis; type: cell-based; conditions: nih3t3
NIH3T3 [6] = assay: Inhibition of cell proliferation in mouse NIH/3T3 cells expressing K-RAS at 100 uM after 24 to 72 hrs by coulter counting analysis; type: functional, cell-based
GTPase HRas [7] = target: T1, GTPase HRas; assay: Binding affinity to [15N]-H-Ras (1 to 166) (unknown origin) by NMR spectrometry
Target sequence in this assay (P01112 whole entry): as above

IC50 (GTPase HRas [2]) [µM]	IC50 (GTPase HRas [4]) [µM]	inhibition (GTPase HRas [4])	Kd (GTPase HRas [7]) [µM]	Structure (SMILES)	Activity [1]	inhibition (NIH3T3 [3])	inhibition (Mus musculus)	inhibition (INH) [5]	inhibition (NIH3T3 [6])
80	122	Dose-dependent effect	5.5	CC(=O)N[C@H]1C(N(Cc2ccc(O)c(O)c2)OCc2ccccc2)O[C@H](CO)[C@@H](O)[C@@H]1O (stereo partly drawn)	Toxic	Dose-dependent effect	Active	Dose-dependent effect	Active
100			7.8	OC[C@H]1O[C@@H](O[C@H]2[C@H](O)[C@@H](O)C(N(Cc3ccc(O)c(O)c3)OCc3ccccc3)O[C@@H]2CO)[C@H](O)[C@@H](O)[C@H]1O (stereo partly drawn)	Toxic	Dose-dependent effect		Dose-dependent effect	Active
80			9.5	OC[C@H]1OC(N(Cc2ccc(O)c(O)c2)OCc2ccccc2)[C@H](O)[C@@H](O)[C@@H]1O (stereo partly drawn)	Toxic	Dose-dependent effect		Dose-dependent effect	Active
320			21.4	Oc1ccc(CNOCc2ccccc2)cc1O					
